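Where inhibition never reached the appropriate level, the endpoint shown equals the highest concentration tested. Otherwise, values were interpolated linearly from a five-concentration, 48-hour dose response in 96-well plates. TGI: total growth inhibition.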
Experiments:
Test in all cases: NCI anticancer screen, dose series, 48 h
[1] = system: UACC-257 melanoma
[2] = system: OVCAR-4 ovarian
[3] = system: HCC-2998 colon
[4] = system: NCI/ADR-RES ovarian
[5] = system: UACC-62 melanoma
[6] = system: MCF7 breast
[7] = system: SK-MEL-28 melanoma
[8] = system: SN12C renal
[9] = system: 786-0 renal
[10] = system: KM12 colon
[11] = system: MDA-MB-231 breast
[12] = system: DU-145 prostate
[13] = system: RXF 393 renal
[14] = system: T-47D breast
[15] = system: HT29 colon
[16] = system: MDA-MB-435
[17] = system: TK-10 renal
[18] = system: IGROV1 ovarian
[19] = system: SNB-75 CNS
[20] = system: HOP-92 NSCLC
[21] = system: SK-MEL-2 melanoma
[22] = system: M14 melanoma
[23] = system: CAKI-1 renal
[24] = system: SF-268 CNS
[25] = system: NCI-H522 lung
[26] = system: NCI-H23 lung
[27] = system: SK-MEL-5 melanoma
[28] = system: SF-539 CNS
[29] = system: SW-620 colon
[30] = system: ACHN renal
[31] = system: MALME-3M melanoma
[32] = system: SK-OV-3 ovarian
[33] = system: NCI-H226 lung
[34] = system: OVCAR-5 ovarian
[35] = system: EKVX NSCLC
[36] = system: SF-295 CNS
[37] = system: HS 578T breast
[38] = system: A549 NSCLC
[39] = system: HCT-116 colon
[40] = system: UO-31 renal
[41] = system: CCRF-CEM leukemia
[42] = system: COLO 205 colon
[43] = system: K-562 leukemia
[44] = system: SR leukemia
[45] = system: NCI-H460 lung
[46] = system: SNB-19 CNS
[47] = system: U251 CNS
[48] = system: OVCAR-8 ovarian
[49] = system: PC-3 prostate
[50] = system: HL-60(TB) leukemia
[51] = system: OVCAR-3 ovarian
[52] = system: HCT-15 colon
[53] = system: MOLT-4 leukemia
[54] = system: HOP-62 NSCLC
[55] = system: LOX IMVI melanoma
[56] = system: RPMI-8226 leukemia
[57] = system: BT-549 breast
[58] = system: A498 renal

`Oc1c(Cl)c(Cl)c(O)c(-c2cnc(-c3ncc(-c4c(O)c(Cl)c(Cl)c(O)c4Cl)s3)s2)c1Cl` was tested, and the TGI [1] was 97.8 µM, the TGI [2] was > 100 µM and the TGI [3] was > 100 µM. It also gave a TGI [4] of 71.6 µM, a TGI [5] of 46.8 µM and a TGI [6] of 52 µM. It also gave a TGI [7] of 75.6 µM, a TGI [8] of 66.3 µM and a TGI [9] of 53.2 µM. The TGI [10] was > 100 µM, the TGI [11] was 42.8 µM and the TGI [12] was > 100 µM. The TGI [13] was 43.8 µM, the TGI [14] was > 100 µM and the TGI [15] was > 100 µM. It also gave a TGI [16] of 47.7 µM, a TGI [17] of 70.1 µM and a TGI [18] of 37 µM. The TGI [19] was 71.7 µM, the TGI [20] was > 100 µM and the TGI [21] was 54.1 µM. The TGI [22] was 47.2 µM, the TGI [23] was 41.2 µM and the TGI [24] was 55.3 µM. It also gave a TGI [25] of 5.43 µM, a TGI [26] of 39.9 µM and a TGI [27] of 30.1 µM. For the same molecule, the TGI [28] was 81.7 µM, the TGI [29] was > 100 µM and the TGI [30] was 51.5 µM. The TGI [31] was 71.3 µM, the TGI [32] was > 100 µM and the TGI [33] was 14 µM. For the same molecule, the TGI [34] was 36.4 µM, the TGI [35] was 61.5 µM and the TGI [36] was 41.9 µM. For the same molecule, the TGI [37] was 56.5 µM, the TGI [38] was > 100 µM and the TGI [39] was 42 µM. The TGI [40] was 58.7 µM, the TGI [41] was > 100 µM and the TGI [42] was 97.2 µM. For the same molecule, the TGI [43] was > 100 µM, the TGI [44] was > 100 µM and the TGI [45] was > 100 µM. It also gave a TGI [46] of 88.1 µM, a TGI [47] of 48.7 µM and a TGI [48] of 52.7 µM. The TGI [49] was > 100 µM, the TGI [50] was > 100 µM and the TGI [51] was 52.4 µM. The TGI [52] was 33.3 µM, the TGI [53] was > 100 µM and the TGI [54] was > 100 µM.

With `O=C(OCC1CC(C2(O)CCCCC2)C(=O)O1)c1ccccc1` (stereo not given) the TGI [1] was > 100 µM, the TGI [2] was > 100 µM and the TGI [3] was > 100 µM. For the same molecule, the TGI [4] was > 100 µM, the TGI [5] was > 100 µM and the TGI [6] was > 100 µM. The TGI [7] was > 100 µM, the TGI [8] was > 100 µM and the TGI [9] was > 100 µM. For the same molecule, the TGI [10] was > 100 µM, the TGI [11] was > 100 µM and the TGI [12] was > 100 µM. For the same molecule, the TGI [13] was > 100 µM, the TGI [55] was > 100 µM and the TGI [15] was > 100 µM. The TGI [16] was > 100 µM, the TGI [17] was > 100 µM and the TGI [18] was > 100 µM. The TGI [56] was > 100 µM, the TGI [19] was > 100 µM and the TGI [20] was > 100 µM. The TGI [21] was > 100 µM, the TGI [22] was > 100 µM and the TGI [23] was > 100 µM. The TGI [24] was > 100 µM, the TGI [25] was > 100 µM and the TGI [26] was > 100 µM. For the same molecule, the TGI [27] was > 100 µM, the TGI [28] was > 100 µM and the TGI [29] was > 100 µM. For the same molecule, the TGI [30] was > 100 µM, the TGI [31] was > 100 µM and the TGI [32] was > 100 µM. For the same molecule, the TGI [33] was > 100 µM, the TGI [34] was > 100 µM and the TGI [35] was > 100 µM. For the same molecule, the TGI [36] was > 100 µM, the TGI [38] was > 100 µM and the TGI [39] was > 100 µM. For the same molecule, the TGI [40] was > 100 µM, the TGI [41] was > 100 µM and the TGI [42] was > 100 µM. The TGI [43] was > 100 µM, the TGI [44] was > 100 µM and the TGI [45] was > 100 µM. For the same molecule, the TGI [46] was > 100 µM, the TGI [47] was > 100 µM and the TGI [48] was > 100 µM. The TGI [49] was > 100 µM, the TGI [51] was > 100 µM and the TGI [57] was > 100 µM. For the same molecule, the TGI [52] was > 100 µM, the TGI [53] was > 100 µM and the TGI [54] was > 100 µM. The TGI [58] was > 100 µM.

`COc1cccc2c1C(=O)c1c(O)c3c(c(O)c1C2=O)CC(O)(C(C)=O)CC3OC1OC(COC(C)=O)C(OC(C)=O)C(OC(C)=O)C1OC(C)=O` (stereo not given) was tested, and the TGI [1] was 36.6 µM, the TGI [2] was 53.3 µM and the TGI [4] was > 100 µM. The TGI [5] was > 100 µM, the TGI [6] was > 100 µM and the TGI [7] was > 100 µM. The TGI [8] was > 100 µM, the TGI [9] was 56.3 µM and the TGI [10] was > 100 µM. The TGI [11] was 63.7 µM, the TGI [12] was > 100 µM and the TGI [13] was 7.25 µM. The TGI [14] was > 100 µM, the TGI [55] was > 100 µM and the TGI [15] was > 100 µM. The TGI [16] was > 100 µM, the TGI [17] was 61.8 µM and the TGI [18] was 47.5 µM. The TGI [19] was 27 µM, the TGI [20] was 32.2 µM and the TGI [21] was > 100 µM. The TGI [22] was > 100 µM, the TGI [24] was 55.1 µM and the TGI [25] was > 100 µM. The TGI [27] was > 100 µM, the TGI [28] was 39.7 µM and the TGI [29] was > 100 µM. The TGI [30] was 87.6 µM, the TGI [31] was > 100 µM and the TGI [32] was > 100 µM. The TGI [34] was 96.6 µM, the TGI [35] was 27.4 µM and the TGI [36] was 62.8 µM. For the same molecule, the TGI [37] was 64.8 µM, the TGI [38] was > 100 µM and the TGI [39] was > 100 µM. For the same molecule, the TGI [40] was > 100 µM, the TGI [41] was 0.131 µM and the TGI [42] was > 100 µM. The TGI [43] was > 100 µM, the TGI [44] was 25.8 µM and the TGI [45] was > 100 µM. The TGI [46] was 42.1 µM, the TGI [47] was 27.5 µM and the TGI [48] was 37.2 µM. For the same molecule, the TGI [49] was > 100 µM, the TGI [50] was > 100 µM and the TGI [51] was 31.2 µM. The TGI [52] was > 100 µM, the TGI [53] was 36.9 µM and the TGI [54] was 33.2 µM.

— PubChem BioAssay (NCI)
